Where a name gives a salt, the structure may show the parent alone. Read-outs that look alike come from different tables or passages of the source.
Columns and labels:
[1] = molecular target: T1, tau-tau binding (truncated tau residues 297-390; dGA, and full-length tau (T40)) (Homo sapiens, UniProt P10636); conditions: read-out: B50; concentration of compound required to inhibit the tau-tau binding by 50%
Source text: (§1) Briefly, a fragment of tau corresponding to the core repeat domain, which has been adsorbed to a solid phase substrate, is able to capture soluble full-length tau and bind tau with high affinity.
(§2) The aqueous phase binding buffer contained 0.05% Tween-20 and 1% gelatine in phosphate-buffered saline (pH7.4).

fibroblast cells (3T6) = conditions: cell numbers after 24 hrs exposure, lactate dehydrogenase assay after lysis of remaining cells
Description: Toxicity of the compounds described herein was assessed in the cell based assay used to assess EC50. Toxicity was measured by cell numbers after 24 hrs exposure to the compound using a lactate dehydrogenase assay kit TOX-7(Sigma Biosciences) according to the manufacturer's instructions after lysis of remaining cells. Alternatively a kit from Promega UK (CytoTox 96) was used, again according to the manufacturer's instructions.

[2] = molecular target: T2, full-length tau ("T40") in fibroblast cells (3T6) (Homo sapiens, UniProt P10636); test: Cell-based assay for establishing EC50 (inhibition of generation of the 12 kD PHF-core tau fragment); conditions: concentration at which there is a 50% inhibition of generation of the 12 kD fragment; 3T6 cells
T2 construct: fibroblast cells (3T6) express full-length tau ("T40") under control of an inducible promotor; low constitutive levels of the PHF-core tau fragment (12 kD fragment); expressed in transfected cells; host or cells: 3T6 fibroblast cells
Source text: In essence, fibroblast cells (3T6) express full-length tau ("T40") under control of an inducible promotor, and low constitutive levels of the PHF-core tau fragment (12 kD fragment).
This is referred to as the EC50 value.

[3] = molecular target: T1, tau-tau binding (truncated tau residues 297-390; dGA, and full-length tau (T40)); test: biochemical
Source text: as §1, §2

T2 sequence (P10636 2-441 isoform P10636-8 limits assumed): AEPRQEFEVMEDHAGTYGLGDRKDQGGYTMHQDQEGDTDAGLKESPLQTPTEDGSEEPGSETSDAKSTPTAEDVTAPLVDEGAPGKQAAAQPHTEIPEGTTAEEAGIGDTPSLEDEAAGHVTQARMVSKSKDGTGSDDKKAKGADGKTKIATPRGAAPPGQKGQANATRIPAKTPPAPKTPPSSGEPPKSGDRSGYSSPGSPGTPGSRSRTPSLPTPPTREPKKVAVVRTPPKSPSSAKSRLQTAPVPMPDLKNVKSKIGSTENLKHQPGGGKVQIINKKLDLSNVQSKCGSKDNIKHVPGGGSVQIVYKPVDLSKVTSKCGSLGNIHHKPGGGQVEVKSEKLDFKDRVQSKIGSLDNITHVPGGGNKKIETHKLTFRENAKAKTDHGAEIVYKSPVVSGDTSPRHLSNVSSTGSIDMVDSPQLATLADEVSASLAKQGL
T1 sequence (P10636 614-707): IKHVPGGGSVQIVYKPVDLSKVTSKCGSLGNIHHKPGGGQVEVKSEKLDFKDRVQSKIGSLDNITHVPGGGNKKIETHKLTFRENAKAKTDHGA
T1 sequence (P10636 1-441 isoform P10636-8): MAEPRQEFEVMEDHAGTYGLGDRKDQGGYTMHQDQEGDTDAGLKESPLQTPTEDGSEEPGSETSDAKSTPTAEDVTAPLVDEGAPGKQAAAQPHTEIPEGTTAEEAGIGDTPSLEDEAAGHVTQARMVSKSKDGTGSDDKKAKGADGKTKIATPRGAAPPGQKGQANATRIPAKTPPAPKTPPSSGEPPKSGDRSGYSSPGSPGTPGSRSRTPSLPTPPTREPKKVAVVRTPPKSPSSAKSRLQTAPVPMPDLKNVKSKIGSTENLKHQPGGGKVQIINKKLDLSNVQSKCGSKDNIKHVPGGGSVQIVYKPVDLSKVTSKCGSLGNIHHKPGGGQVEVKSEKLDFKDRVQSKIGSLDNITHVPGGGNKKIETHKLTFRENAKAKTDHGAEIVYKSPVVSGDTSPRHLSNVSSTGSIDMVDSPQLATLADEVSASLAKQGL

Molecule: ethyl-thioninium chloride [ETC]
- IC50 [1]: 49000 ± 8500 nM
- LD50 (fibroblast cells (3T6)): 32.0 ± 4.0 (26) µM
- EC50 [2]: 70 ± 7 nM

Molecule: CCN(CC)c1ccc2nc3ccc(=[N+](CC)CC)cc-3sc2c1 [ETI.HI, ethyl-thioninium iodide hydrogen iodide mixed salt]
- IC50 [3]: 83000 nM

Molecule: CCc1cc(N(C)C)cc2[s+]c3cc(N(C)C)cc(CC)c3nc12 [DEMTC, 1,9-diethyl-methyl-thioninium chloride]
- LD50 (fibroblast cells (3T6)): 3.3 ± 0.6 (22) µM
- EC50 [2]: 1.6 ± 0.6 nM

Molecule: CCN(CC)c1ccc2nc3ccc(=[N+](CC)CC)cc-3sc2c1 [ETI, ethyl-thioninium iodide]
- IC50 [1]: > 500000 nM
- EC50 [2]: 60 nM

Molecule: CCc1cc(N(CC)CC)cc2[s+]c3cc(N(CC)CC)cc(CC)c3nc12 [DEETC, 1,9-diethyl-ethyl-thioninium chloride]
- IC50 [1]: 3700 ± 500 nM
- LD50 (fibroblast cells (3T6)): 1.6 ± 0.4 (13) µM
- EC50 [2]: 0.6 ± 0.3 nM

Molecule: CCN(CC)c1cc(C)c2nc3c(C)cc(N(CC)CC)cc3[s+]c2c1 [DMETC, 1,9-dimethyl-ethyl-thioninium chloride]
- IC50 [1]: 4500 ± 300 nM
- LD50 (fibroblast cells (3T6)): 4.2 ± 2.2 (4) µM
- EC50 [2]: 4 ± 1 nM

Molecule: Cc1cc(N(C)C)cc2[s+]c3cc(N(C)C)cc(C)c3nc12 [DMMTC, 1,9-dimethyl-methyl-thioninium chloride, reference compound]
- LD50 (fibroblast cells (3T6)): 2.7 ± 1.2 (6) µM
- EC50 [2]: 40 ± 4 nM

From patent EP2853293B1, “Thioninium compounds and their use” (WisTa Laboratories Ltd., priority 2006, dated 2007)
